From patent US20140088124A1, “IMIDAZOLE DERIVATIVES” (priority 2011, published 2014)

target: T1, human DGAT1 enzyme expressed in Sf9 insect cells prepared as microsomes (Homo sapiens, UniProt O75907); test: in vitro assay to identify DGAT1 inhibitors ([14C]-palmitoyl-CoA, wheat germ agglutinin beads, TopCount); type: biochemical; conditions: 2 hours at room temperature
T1 construct: made in house; host or cells: Sf9 insect cells (microsomes)
T1 sequence (O75907 1-488): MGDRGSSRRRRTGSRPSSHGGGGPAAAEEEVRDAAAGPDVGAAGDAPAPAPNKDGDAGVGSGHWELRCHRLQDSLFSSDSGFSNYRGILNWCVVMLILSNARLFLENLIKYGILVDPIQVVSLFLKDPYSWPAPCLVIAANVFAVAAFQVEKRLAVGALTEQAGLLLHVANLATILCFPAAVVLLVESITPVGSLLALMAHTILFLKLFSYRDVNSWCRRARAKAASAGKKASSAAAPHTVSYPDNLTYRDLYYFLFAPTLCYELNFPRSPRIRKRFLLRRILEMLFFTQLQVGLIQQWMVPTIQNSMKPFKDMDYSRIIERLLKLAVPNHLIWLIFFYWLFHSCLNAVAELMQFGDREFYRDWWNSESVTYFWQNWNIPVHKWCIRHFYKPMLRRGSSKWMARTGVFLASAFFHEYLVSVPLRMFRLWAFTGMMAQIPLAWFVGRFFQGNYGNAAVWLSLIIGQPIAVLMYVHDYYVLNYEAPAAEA
Method: If compounds 141-162 were assayed they were assayed as follows: the in vitro assay to identify DGAT1 inhibitors uses human DGAT1 enzyme expressed in Sf9 insect cells prepared as microsomes. The reaction is initiated by the addition of the combined substrates 1,2-dioleoyl-sn-glycerol and [^14C]-palmitoyl-Co A and incubated with test compounds and microsomal membranes for 2 hours at room temperature. The assay is stopped by adding 0.5 mg wheat germ agglutinin beads in assay buffer with 1% Brij-35 and 1% 3-cholamidopropyldimethyl-ammonio-1-propane sulfonate. Plates are sealed with TopSeal and incubated for 18 hours to allow the radioactive triglyceride product to come into proximity with the bead. Plates are read on a TopCount instrument.
Percent inhibition was calculated as the percent of (test compound inhibition minus non-specific binding) relative to (total binding minus non-specific binding). IC50 values were determined by curve fitting the data to a Sigmoidal dose-response in GraphPad Prism utilizing the following equation:
Y=A+(B−A)/(1+10̂((Log IC50−X))),
where A and B are the bottom and top of the curve (highest and lowest inhibition), respectively, and X is the logarithm of concentration.

| IC50 [µM] | Compound |
| --- | --- |
| 2.5 | COC(=O)c1cccc(OCC2CCN(c3ccc(-c4nc5cc(C(F)(F)F)ccc5[nH]4)cn3)CC2)c1 [Example 141, methyl 3-[[1-[5-[5-(trifluoromethyl)-1H-benzol[d]imidazol-2-yl]pyridine-2-yl]piperidin-4-yl]methoxy]benzoate] |
| 0.013 | O=C(O)c1cccc(OCC2CCN(c3ccc(-c4nc5cc(C(F)(F)F)ccc5[nH]4)cn3)CC2)c1 [Example 142, 3-[[1-[5-[5-(trifluoromethyl)-1H-benzol[d]imidazol-2-yl]pyridine-2-yl]piperidin-4-yl]methoxy]benzoic acid] |
| 1.83 | COC(=O)c1cccc(OCC2CCN(c3ccc(-c4nc5cc(Cl)ccc5[nH]4)cn3)CC2)c1 [Example 143] |
| 0.008 | O=C(O)c1cccc(OCC2CCN(c3ccc(-c4nc5cc(Cl)ccc5[nH]4)cn3)CC2)c1 [Example 144] |
| 0.018 | O=C(O)c1cc(OCC2CCN(c3ccc(-c4nc5cc(Cl)ccc5[nH]4)cn3)CC2)cc(C(=O)O)c1 [Example 146, 5-((1-(5-(5-chloro-1H-benzo[d]imidazol-2-yl)pyridin-2-yl)piperidin-4-yl)methoxy)isophthalic acid] |
| 1.07 | O=C(O)c1cc(F)ccc1OCC1CCN(c2ccc(-c3nc4cc(Cl)ccc4[nH]3)cn2)CC1 [Example 148, 2-[[1-[5-(6-chloro-1H-benzimidazol-2-yl)-2-pyridinyl]-4-piperidinyl]methoxy]-5-fluorobenzoic acid] |
| 0.067 | O=C(O)c1ccc(OCC2CCN(c3ccc(-c4nc5cc(Cl)ccc5[nH]4)cn3)CC2)cc1 [Example 150, 4-[[1-[5-(6-Chloro-1H-benzimidazol-2-yl)-2-pyridinyl]-4-piperidinyl]methoxy]benzoic acid] |
| 2.7 | COC(=O)c1ccccc1OCC1CCN(c2ccc(-c3nc4cc(C(F)(F)F)ccc4[nH]3)cn2)CC1 [Example 151] |
| 0.014 | O=C(O)c1ccccc1OCC1CCN(c2ccc(-c3nc4cc(C(F)(F)F)ccc4[nH]3)cn2)CC1 [Example 152] |
| 0.085 | O=C(O)c1ccccc1OCC1CCN(c2ccc(-c3nc4cc(Cl)ccc4[nH]3)cn2)CC1 [Example 153] |
| 0.058 | O=C(O)c1ccc(F)cc1OCC1CCN(c2ccc(-c3nc4cc(Cl)ccc4[nH]3)cn2)CC1 [Example 154] |
| 0.031 | O=C(O)c1ccc(F)cc1OCC1CCN(c2ccc(-c3nc4cc(C(F)(F)F)ccc4[nH]3)cn2)CC1 [Example 155] |
| 0.012 | Cc1ccc(C(=O)O)cc1OCC1CCN(c2ccc(-c3nc4cc(Cl)ccc4[nH]3)cn2)CC1 [Example 156] |
| 0.015 | Cc1ccc(C(=O)O)cc1OCC1CCN(c2ccc(-c3nc4cc(C(F)(F)F)ccc4[nH]3)cn2)CC1 [Example 157] |
| 0.108 | CC(C)(COCC1CCN(c2ccc(-c3nc4cc(Cl)ccc4[nH]3)cn2)CC1)C(=O)O [Example 159] |
| 0.084 | CC(C)(COCC1CCN(c2ccc(-c3nc4cc(C(F)(F)F)ccc4[nH]3)cn2)CC1)C(=O)O [Example 160] |
| 0.095 | O=C(O)C1(COCC2CCN(c3ccc(-c4nc5cc(Cl)ccc5[nH]4)cn3)CC2)CCC1 [Example 161] |
| 0.062 | O=C(O)C1(COCC2CCN(c3ccc(-c4nc5cc(C(F)(F)F)ccc5[nH]4)cn3)CC2)CCC1 [Example 162] |

target: T2, human DGAT1 (Homo sapiens, UniProt O75907); test: DGAT1 CPM Assay; type: biochemical; conditions: human DGAT1, CPM fluorescence, 1 hour incubation at room temperature
T2 sequence (O75907 1-488): T1 sequence (O75907 1-488)
Method: 20 uL of 90 uM CPM reagent in 90% ethanol was added after 1 hour incubation at room temperature.

| IC50 [µM] | Compound |
| --- | --- |
| 0.002 | O=C(O)c1ccc(OC2CCN(c3ccc(-c4nc5cc(Cl)ccc5[nH]4)cn3)CC2)cc1 [Example 131] |
| 0.002 | O=C(O)c1cccc(OC2CCN(c3ccc(-c4nc5cc(Cl)ccc5[nH]4)cn3)CC2)c1 [Example 132] |
| 0.002 | O=C(O)[C@H]1[C@@H]2C[C@H](OC3CCN(c4ccc(-c5nc6cc(C(F)(F)F)ccc6[nH]5)cn4)CC3)C[C@@H]21 [Example 133, (1R,3R,5S,6r)-3-[(1-{5-[5-(trifluoromethyl)-1H-benzimidazol-2-yl]pyridin-2-yl}piperidin-4-yl)oxy]bicyclo[3.1.0]hexane-6-carboxylic acid] |
| 0.004 | O=C(O)[C@H]1[C@@H]2C[C@@H](OC3CCN(c4ccc(-c5nc6cc(C(F)(F)F)ccc6[nH]5)cn4)CC3)C[C@@H]21 [Example 134] |
| 0.011 | O=C(O)[C@@H]1[C@@H]2C[C@H](OC3CCN(c4ccc(-c5nc6cc(C(F)(F)F)ccc6[nH]5)cn4)CC3)C[C@@H]21 [Example 135] |
| 0.006 | O=C(O)[C@@H]1[C@@H]2C[C@@H](OC3CCN(c4ccc(-c5nc6cc(C(F)(F)F)ccc6[nH]5)cn4)CC3)C[C@@H]21 [Example 136] |
| 0.045 | O=C(O)C[C@H]1CC[C@H](O[C@H]2CCN(c3ccc(-c4nc5cc(F)ccc5[nH]4)cn3)C2)CC1 [Example 138] |
